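Growth conditions: 96-well plates. Treatment: test compound, 48 hours, 5 concentrations. Analysis: linear interpolation between bracketing concentrations; unreached endpoints set to highest concentration. The concentration for 50% growth inhibition is given as GI50.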 Active and inactive are the calls of the source. Rule as the data show it: active = GI50 up to about 1.1 µM and inactive = higher.
Key:
Test in all cases: inhibition of tumour cell growth, NCI panel, 48 h
Malme-3M = tested on: Malme-3M
HOP-92 = tested on: HOP-92
NCI/ADR-RES = tested on: NCI/ADR-RES
OVCAR-8 = tested on: OVCAR-8
OVCAR-4 = tested on: OVCAR-4
PC-3 = tested on: PC-3
OVCAR-5 = tested on: OVCAR-5
SW-620 = tested on: SW-620
HOP-62 = tested on: HOP-62
A498 = tested on: A498
HL-60 = tested on: HL-60
EKVX = tested on: EKVX
IGROV-1 = tested on: IGROV-1
OVCAR-3 = tested on: OVCAR-3
U-251 = tested on: U-251
M14 = tested on: M14
SNB-19 = tested on: SNB-19
NCI-H226 = tested on: NCI-H226
NCI-H522 = tested on: NCI-H522
NCI-H23 = tested on: NCI-H23
K562 = tested on: K562
SK-OV-3 = tested on: SK-OV-3
CCRF-CEM = tested on: CCRF-CEM
MCF7 = tested on: MCF7
MDA-MB-231 = tested on: MDA-MB-231
HCC 2998 = tested on: HCC 2998
HT-29 = tested on: HT-29
ACHN = tested on: ACHN
SF-295 = tested on: SF-295
UO-31 = tested on: UO-31
UACC-257 = tested on: UACC-257
CAKI-1 = tested on: CAKI-1
MDA-MB-435 = tested on: MDA-MB-435
DU-145 = tested on: DU-145
RPMI-8226 = tested on: RPMI-8226
A549 = tested on: A549
MOLT-4 = tested on: MOLT-4
MDA-N = tested on: MDA-N
HCT-15 = tested on: HCT-15
UACC-62 = tested on: UACC-62
LOX IMVI = tested on: LOX IMVI
T47D = tested on: T47D
SK-MEL-2 = tested on: SK-MEL-2
SF-539 = tested on: SF-539
786-0 = tested on: 786-0
COLO 205 = tested on: COLO 205
RXF 393 = tested on: RXF 393
SNB-75 = tested on: SNB-75
SK-MEL-28 = tested on: SK-MEL-28
HCT-116 = tested on: HCT-116
SK-MEL-5 = tested on: SK-MEL-5
KM12 = tested on: KM12
TK-10 = tested on: TK-10
SN12C = tested on: SN12C
NCI-H460 = tested on: NCI-H460
SR = tested on: SR
SF-268 = tested on: SF-268

Measured: GI50

O=C1O/C(=C/c2ccccc2)C(c2ccccc2)=C1O
34.4 µM: HCT-15
inactive: Malme-3M 60.7 µM | HOP-92 61.5 µM | NCI/ADR-RES 34.7 µM | OVCAR-8 60.1 µM | OVCAR-4 55.3 µM | PC-3 29.2 µM | OVCAR-5 > 100 µM | SW-620 43.7 µM | HOP-62 29.4 µM | A498 23.1 µM | HL-60 20.1 µM | EKVX 39.2 µM | IGROV-1 40.6 µM | OVCAR-3 19.8 µM | U-251 31.3 µM | M14 59.8 µM | SNB-19 47.5 µM | NCI-H226 > 100 µM | NCI-H522 65 µM | NCI-H23 19 µM | K562 41.1 µM | SK-OV-3 61.9 µM | CCRF-CEM 29.7 µM | MCF7 34.4 µM | MDA-MB-231 38.1 µM | HCC 2998 41.3 µM | HT-29 > 100 µM | ACHN 74 µM | SF-295 36.3 µM | UO-31 27 µM | UACC-257 > 100 µM | CAKI-1 47.3 µM | MDA-MB-435 29.8 µM | DU-145 26 µM | RPMI-8226 28 µM | A549 33.3 µM | MOLT-4 53.3 µM | MDA-N 34 µM | UACC-62 18.5 µM | LOX IMVI 36.6 µM | T47D 27.2 µM | SK-MEL-2 17.5 µM | SF-539 37.9 µM | 786-0 46.7 µM | COLO 205 > 100 µM | RXF 393 24.3 µM | SNB-75 67.3 µM | SK-MEL-28 35.5 µM | HCT-116 36.9 µM | SK-MEL-5 34.4 µM | KM12 59.8 µM | TK-10 75 µM | SN12C 33 µM

CC1(C)CC(=O)C(=CNc2nc(-c3ccccc3)cs2)C(=O)C1
inactive: HOP-92 71 µM | NCI/ADR-RES 34.4 µM | OVCAR-8 48.6 µM | OVCAR-4 69.5 µM | PC-3 38.6 µM | OVCAR-5 > 100 µM | SW-620 31.4 µM | HOP-62 34.2 µM | HL-60 47.9 µM | EKVX 26.2 µM | IGROV-1 26.6 µM | OVCAR-3 40.7 µM | U-251 29.3 µM | M14 41.1 µM | SNB-19 71.4 µM | NCI-H226 29 µM | NCI-H23 32.4 µM | SK-OV-3 > 100 µM | MCF7 29.2 µM | NCI-H460 30.7 µM | MDA-MB-231 34.8 µM | HCC 2998 31.2 µM | HT-29 33.6 µM | ACHN 40.5 µM | SF-295 57.9 µM | UO-31 20.7 µM | UACC-257 35.1 µM | MDA-MB-435 24.9 µM | DU-145 57 µM | A549 49 µM | MOLT-4 32.4 µM | MDA-N 30.1 µM | LOX IMVI > 100 µM | T47D 32.7 µM | SK-MEL-2 34.7 µM | SF-539 26.4 µM | 786-0 > 100 µM | COLO 205 33 µM | SNB-75 33.7 µM | SK-MEL-28 26.7 µM | HCT-116 > 100 µM | SK-MEL-5 38.1 µM | KM12 32.1 µM | TK-10 24 µM | SN12C 39.2 µM
20.2 µM: HCT-15

Cc1cc(C)n(-c2nc3ccccc3c(=O)n2-c2ccccc2)n1
active: UO-31 0.621 µM
inactive: SR > 100 µM | Malme-3M > 100 µM | NCI/ADR-RES > 100 µM | OVCAR-8 > 100 µM | OVCAR-4 > 100 µM | PC-3 > 100 µM | OVCAR-5 > 100 µM | SW-620 > 100 µM | HOP-62 > 100 µM | A498 > 100 µM | HL-60 > 100 µM | IGROV-1 > 100 µM | OVCAR-3 > 100 µM | U-251 > 100 µM | M14 > 100 µM | SNB-19 > 100 µM | NCI-H226 > 100 µM | NCI-H522 > 100 µM | NCI-H23 > 100 µM | K562 > 100 µM | SK-OV-3 > 100 µM | CCRF-CEM > 100 µM | MCF7 > 100 µM | NCI-H460 > 100 µM | MDA-MB-231 > 100 µM | HCC 2998 > 100 µM | HT-29 > 100 µM | ACHN > 100 µM | SF-295 > 100 µM | UACC-257 > 100 µM | CAKI-1 > 100 µM | MDA-MB-435 > 100 µM | DU-145 > 100 µM | A549 > 100 µM | MOLT-4 > 100 µM | MDA-N > 100 µM | LOX IMVI > 100 µM | T47D > 100 µM | SF-268 > 100 µM | SK-MEL-2 67 µM | SF-539 > 100 µM | 786-0 > 100 µM | COLO 205 > 100 µM | RXF 393 > 100 µM | SNB-75 > 100 µM | SK-MEL-28 > 100 µM | HCT-116 > 100 µM | SK-MEL-5 > 100 µM | TK-10 > 100 µM | SN12C > 100 µM
> 100 µM: HCT-15
